The test has as its target T1, Tau P301L (Homo sapiens, UniProt P10636, P618L).
T1 construct: expressed in transfected cells
The test is described as follows: In vitro tau degradation assay in CHOK1 Tau P301L cells (sarkosyl insoluble tau, WES). The test is classed as cell-based. To be noted: CHO-K1, relative to DMSO doxycycline control, read-out: Tau Protein Degradation effect at 1 μM. On the procedure: Exemplary bifunctional molecules of the present disclosure are represented by the structures in Table 1, which includes associated data. In vitro tau protein degradation data in CHOK1 Tau P301L cells, as described below, is reported based on the remaining tau protein in the sarkosyl insoluble pellet following treatment of cells for 48 hours with test compound at the 1 μM concentration where the last 24 hours doxycycline was removed. The data are represented relative to DMSO doxycycline control: • A ≤50% of tau protein remaining (>50% of tau protein degraded) • B >50% of tau protein remaining ([…] of tau protein degraded)
Data for compounds in Table 1 was generated using in vitro tau Degradation Assay protocol as described in Methods for FIGS. 2A and 2B below.
FIGS. 2A and 2B. (2A) Tau expression was induced by addition (+) of doxycycline (1 μg/ml) to ChoK1-Tau P301L clone D1.
In vitro tau Degradation Assay for FIGS. 2A and 2B. T-Rex CHOK1 cells are maintained in Ham's F-12 Nutrient Mix (ThermoFisher) plus 10% Fetal Bovine Serum Tetracycline Negative (Corning) with 10 ug/mL Blasticidin S HCl (Gibco) and 200 ug/mL Zeocin (100 mg/mL, Invitrogen). A stable clone expressing Tau P301L in the presence of doxycycline (1 μg/ml), clone D1 was selected. Compounds were diluted to indicated concentrations and used to treat cells for the indicated times. Cells were harvested from either 96, 24, 6, or 10 cm dishes coated with Poly-D-Lysine (Corning) in ice cold PBS or Buffer H+HALT Protease and phosphatase inhibitors (Thermofisher). Sarkosyl Insoluble tau was isolated as described in Eckermann et al. and Greenberg and Davies, accordingly. WES™ capillary electrophoresis analysis was performed on the Sarkosyl Insoluble tau fraction using Tau1 antibody (Milipore) unless otherwise indicated, as specified in the manufacturers specification (ProteinSimple).

The mark [1] stands for this setting: remaining tau protein in sarkosyl insoluble pellet, CHOK1 Tau P301L cells treated 48 hours with test compound at 1 μM, doxycycline removed for the last 24 hours.
Where [2] appears, read: CHOK1 Tau P301L cells, remaining tau in sarkosyl insoluble pellet, 48 hours with test compound at 1 μM, doxycycline removed for last 24 hours.

Like-named read-outs stand apart in the source and are kept apart here.

T1 sequence (P10636 1-441 isoform P10636-8 P301L): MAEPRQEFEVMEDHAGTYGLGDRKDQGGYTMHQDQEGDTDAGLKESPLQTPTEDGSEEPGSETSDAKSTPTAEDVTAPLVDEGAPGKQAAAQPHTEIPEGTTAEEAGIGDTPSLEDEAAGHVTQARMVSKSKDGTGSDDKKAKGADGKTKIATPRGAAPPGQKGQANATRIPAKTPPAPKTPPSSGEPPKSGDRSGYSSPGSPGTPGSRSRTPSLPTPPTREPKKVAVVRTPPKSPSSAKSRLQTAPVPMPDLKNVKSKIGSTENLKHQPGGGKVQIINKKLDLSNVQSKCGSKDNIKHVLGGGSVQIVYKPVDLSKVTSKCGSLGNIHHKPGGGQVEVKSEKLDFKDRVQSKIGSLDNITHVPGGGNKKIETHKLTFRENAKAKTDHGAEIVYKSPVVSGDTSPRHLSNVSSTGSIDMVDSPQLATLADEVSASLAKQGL

On to `O=C1CCC(N2C(=O)c3ccc(OCCCN4CCC5(CC4)CN(c4ncc(-c6ccc7c8cnccc8n(C(F)F)c7c6)cc4F)C5)cc3C2=O)C(=O)N1` (centres unmarked) [Compound 568, 5-(3-(2-(5-(5-(difluoromethyl)-5H-pyrido[4,3-b]indol-7-yl)-3-fluoropyridin-2-yl)-2,7-diazaspiro[3.5]nonan-7-yl)propoxy)-2-(2,6-dioxopiperidin-3-yl)isoindoline-1,3-dione], for which the remaining activity at 1 µM under setting [1] is < 50%.

Turning to `Cn1c2ccncc2c2ccc(-c3ccc(O[C@H]4C[C@H](OC5CCN(c6ccc7c(c6)C(=O)N(C6CCC(=O)NC6=O)C7=O)CC5)C4)nc3)cc21` (some centres unmarked) [Compound 493, 2-(2,6-dioxopiperidin-3-yl)-5-(4-((1r,3r)-3-((5-(5-methyl-5H-pyrido[4,3-b]indol-7-yl)pyridin-2-yl)oxy)cyclobutoxy)piperidin-1-yl) isoindoline-1,3-dione], under setting [1], the remaining activity at 1 µM was < 50%.

For `Cn1c2ccncc2c2ccc(C3CCN([C@H]4C[C@@H](OC5CCN(CCOc6ccc7c(c6)C(=O)N(C6CCC(=O)NC6=O)C7=O)CC5)C4)CC3)cc21` (some centres unmarked) [Compound 515, 2-(2,6-dioxopiperidin-3-yl)-5-(2-(4-((1s,3s)-3-(4-(5-methyl-5H-pyrido[4,3-b]indol-7-yl)piperidin-1-yl)cyclobutoxy)piperidin-1-yl)ethoxy) isoindoline-1,3-dione], the remaining activity at 1 µM under setting [1] was < 50%.

As for `O=C1CCC(N2C(=O)c3cc(F)c(N4CCN(CCC5CCN(c6ncc(-c7c(F)cc8c9cnccc9n(CC(F)(F)F)c8c7F)cn6)CC5)CC4)cc3C2=O)C(=O)N1` (centres unmarked) [Compound 645, 5-(4-(2-(1-(5-(6,8-difluoro-5-(2,2,2-trifluoroethyl)-5H-pyrido[4,3-b]indol-7-yl)pyrimidin-2-yl)piperidin-4-yl)ethyl)piperazin-1-yl)-2-(2,6-dioxopiperidin-3-yl)-6-fluoroisoindoline-1,3-dione], the remaining activity at 1 µM under setting [2] is < 50%.

As to `O=C1CCC(N2C(=O)c3cc(N4CCN(CCC5CCN(c6ncc(-c7ccc8c9cnccc9n(C(F)F)c8c7)cc6F)CC5)CC4)cc(C(F)F)c3C2=O)C(=O)N1` (centres unmarked) [Compound 641, 4-(difluoromethyl)-6-(4-(2-(1-(5-(5-(difluoromethyl)-5H-pyrido[4,3-b]indol-7-yl)-3-fluoropyridin-2-yl)piperidin-4-yl)ethyl)piperazin-1-yl)-2-(2,6-dioxopiperidin-3-yl)isoindoline-1,3-dione], the remaining activity at 1 µM under setting [2] is < 50%.

With `O=C1CCC(N2C(=O)c3ccc(N4CCN(CCOCCN5CCCc6cc(-c7ccc8c9cnccc9n(C(F)F)c8c7)cc(F)c65)CC4)cc3C2=O)C(=O)N1` (centres unmarked) [Compound 611, 5-(4-(2-(2-(6-(5-(difluoromethyl)-5H-pyrido[4,3-b]indol-7-yl)-8-fluoro-3,4-dihydroquinolin-1(2H)-yl)ethoxy)ethyl)piperazin-1-yl)-2-(2,6-dioxopiperidin-3-yl)isoindoline-1,3-dione], the remaining activity at 1 µM under setting [2] was < 50%.

On to `Cn1c2ccncc2c2ccc(-c3ccc(OC4CC5(C4)CN(C(=O)CC4CCN(CC6CN(c7ccc8c(c7)C(=O)N(C7CCC(=O)NC7=O)C8=O)C6)CC4)C5)nc3)cc21` (centres unmarked) [Compound 472, 2-(2,6-dioxopiperidin-3-yl)-5-(3-((4-(2-(6-((5-(5-methyl-5H-pyrido[4,3-b]indol-7-yl)pyridin-2-yl)oxy)-2-azaspiro[3.3]heptan-2-yl)-2-oxoethyl)piperidin-1-yl)methyl)azetidin-1-yl)isoindoline-1,3-dione], for which, under setting [1], the remaining activity at 1 µM is < 50%.

Regarding `O=C1CCC(N2C(=O)c3ccc(N4CCC(CCN5CCN(C6CCN(c7ccc8c9cnccc9n(C(F)F)c8c7)CC6)CC5)CC4)cc3C2=O)C(=O)N1` (centres unmarked) [Compound 633, 5-(4-(2-(4-(1-(5-(difluoromethyl)-5H-pyrido[4,3-b]indol-7-yl)piperidin-4-yl)piperazin-1-yl)ethyl)piperidin-1-yl)-2-(2,6-dioxopiperidin-3-yl)isoindoline-1,3-dione], under setting [2], the remaining activity at 1 µM was < 50%.

On to `O=C1CCC(N2C(=O)c3ccc(N4CCN(CCCN5CCOC6(CCN(c7ccc8c9cnccc9n(C(F)F)c8c7)CC6)C5)CC4)cc3C2=O)C(=O)N1` (centres unmarked) [Compound 575, 5-(4-(3-(9-(5-(difluoromethyl)-5H-pyrido[4,3-b]indol-7-yl)-1-oxa-4,9-diazaspiro[5.5]undecan-4-yl)propyl)piperazin-1-yl)-2-(2,6-dioxopiperidin-3-yl)isoindoline-1,3-dione], for which the remaining activity at 1 µM under setting [1] was < 50%.

On to `N#Cc1cc(-c2ccc3c4cnccc4n(C(F)F)c3c2)cnc1N1CCC(CCN2CCN(c3ccc4c(c3)CN(C3CCC(=O)NC3=O)C4=O)CC2)CC1` (centres unmarked) [Compound 475, 5-(5-(difluoromethyl)-5H-pyrido[4,3-b]indol-7-yl)-2-(4-(2-(4-(2-(2,6-dioxopiperidin-3-yl)-1-oxoisoindolin-5-yl)piperazin-1-yl)ethyl)piperidin-1-yl)nicotinonitrile], for which the remaining activity at 1 µM under setting [1] is > 50%.

As to `Cn1c2ccncc2c2ccc(-c3ccc(O[C@H]4C[C@H](OC5CCN(CCCN6CC(Oc7ccc8c(c7)C(=O)N(C7CCC(=O)NC7=O)C8=O)C6)CC5)C4)nc3)cc21` (some centres unmarked) [Compound 388, 2-(2,6-dioxopiperidin-3-yl)-5-((1-(3-(4-((1r,3r)-3-((5-(5-methyl-5H-pyrido[4,3-b]indol-7-yl)pyridin-2-yl)oxy)cyclobutoxy)piperidin-1-yl)propyl)azetidin-3-yl)oxy) isoindoline-1,3-dione], the remaining activity at 1 µM under setting [1] was < 50%.

As to `Cc1ncsc1-c1ccc([C@H](C)NC(=O)[C@@H]2C[C@@H](O)CN2C(=O)[C@H](c2cc(OCCN3CCC(O[C@H]4C[C@H](Oc5ccc(-c6ccc7c8cnccc8n(C)c7c6)cn5)C4)CC3)no2)C(C)C)cc1` [Compound 399, (2S,4R)-4-hydroxy-1-((S)-3-methyl-2-(3-(2-(4-((1r,3S)-3-((5-(5-methyl-5H-pyrido[4,3-b]indol-7-yl)pyridin-2-yl)oxy)cyclobutoxy)piperidin-1-yl)ethoxy)isoxazol-5-yl)butanoyl)-N-((S)-1-(4-(4-methylthiazol-5-yl)phenyl)ethyl) pyrrolidine-2-carboxamide], the remaining activity at 1 µM under setting [1] was > 50%.

Turning to `Cc1ncsc1-c1ccc([C@H](C)NC(=O)[C@@H]2C[C@@H](O)CN2C(=O)[C@@H](NC(=O)CN2CCN(CCN3CCC(O[C@H]4C[C@H](Oc5ccc(-c6ccc7c8cnccc8n(C)c7c6)cn5)C4)CC3)CC2)C(C)(C)C)cc1` [Compound 389, (2S,4R)-1-((S)-3,3-dimethyl-2-(2-(4-(2-(4-((1r,3r)-3-((5-(5-methyl-5H-pyrido[4,3-b]indol-7-yl)pyridin-2-yl)oxy)cyclobutoxy)piperidin-1-yl)ethyl)piperazin-1-yl)acetamido)butanoyl)-4-hydroxy-N-((S)-1-(4-(4-methylthiazol-5-yl)phenyl)ethyl) pyrrolidine-2-carboxamide], the remaining activity at 1 µM under setting [1] was < 50%.

`COc1ccc2nc(/C=C/C=C/c3ccc(OCCOCCOCCOCCOc4ccc5c(c4)C(=O)N(C4CCC(=O)NC4=O)C5=O)nc3)sc2c1` (centres unmarked) [Compound 628, 2-(2,6-dioxopiperidin-3-yl)-5-(2-(2-(2-(2-((5-((1E,3E)-4-(6-methoxybenzo[d]thiazol-2-yl)buta-1,3-dien-1-yl)pyridin-2-yl)oxy)ethoxy)ethoxy)ethoxy)ethoxy) isoindoline-1,3-dione]: under setting [2], the remaining activity at 1 µM is < 50%.

As for `O=C1CCC(N2C(=O)c3ccc(N4CCN(CCC5CCN(c6ncc(-c7ccc8c9cncc(F)c9n(C(F)F)c8c7)cc6F)CC5)CC4)cc3C2=O)C(=O)N1` (centres unmarked) [Compound 652, 5-(4-(2-(1-(5-(5-(difluoromethyl)-4-fluoro-5H-pyrido[4,3-b]indol-7-yl)-3-fluoropyridin-2-yl)piperidin-4-yl)ethyl)piperazin-1-yl)-2-(2,6-dioxopiperidin-3-yl)isoindoline-1,3-dione], the remaining activity at 1 µM under setting [1] is < 50%.

As to `CC(C)N(C1CCN(c2ncc(-c3ccc4c5cnccc5n(C(F)F)c4c3)cc2F)CC1)[C@H]1C[C@H](Oc2ccc3c(c2)C(=O)N(C2CCC(=O)NC2=O)C3=O)C1` (some centres unmarked) [Compound 638], the remaining activity at 1 µM under setting [2] is < 50%.

For `Cn1c2ccncc2c2ccc(-c3ccc(OCCOCCOCCOc4ccc5c(c4)C(=O)N(C4CCC(=O)NC4=O)C5=O)nc3)nc21` (centres unmarked) [Compound 419, 2-(2,6-dioxopiperidin-3-yl)-5-(2-(2-(2-((5-(9-methyl-9H-pyrrolo[2,3-b:4,5-c′]dipyridin-2-yl)pyridin-2-yl)oxy)ethoxy)ethoxy)ethoxy)isoindoline-1,3-dione], the remaining activity at 1 µM under setting [1] was > 50%.

(Values after patent US11912699B2, “Tau-protein targeting compounds and associated” (Arvinas Operations, Inc., priority 2019, dated 2024).)
